Experimental data from ChEMBL document CHEMBL1147516, “Synthesis and evaluation of lasonolide A analogues” (2004).

Columns and labels:
Assay type in all cases: functional
Conditions in all cases: Homo sapiens
NCI-H46 = test: Growth inhibition against NCI-H460 cell line was evaluated
A549 = test: Growth inhibition against A549 cell line was evaluated
HCT-116 = test: Growth inhibition against HCT116 cell line was evaluated

| SMILES | GI50 (NCI-H46) [nM] | GI50 (A549) [nM] | GI50 (HCT-116) [nM] |
| --- | --- | --- | --- |
| CCCCCCCCCCCCOC(=O)[C@H](O)C/C=C\C[C@@H]1O[C@@H]2/C=C/C/C=C/C(C)=C\[C@H]3O[C@@H](C/C=C/C=C/C(=O)O[C@H](C2)[C@@]1(C)CO)C[C@H](O)[C@H]3C | 170 | 200 | 190 |
| C=C(CCC(C)C)COC(=O)[C@H](O)C/C=C\C[C@@H]1O[C@@H]2/C=C/C/C=C/C(C)=C\[C@H]3O[C@@H](C/C=C/C=C/C(=O)O[C@H](C2)[C@@]1(C)CCO)C[C@H](O)[C@H]3C | 1000 | 800 | 1800 |
| C=C(CCC(C)C)COC(=O)[C@H](O)C/C=C\C[C@@H]1O[C@@H]2/C=C/C/C=C/C(C)=C\[C@@H]3C[C@@H](O)C[C@H](C/C=C/C=C/C(=O)O[C@H](C2)[C@@]1(C)CO)O3 | 65 | 100 | 45 |
| C=C(CCC(C)C)COC(=O)[C@H](O)C/C=C\C[C@@H]1O[C@@H]2/C=C/C/C=C/C(C)=C\[C@H]3O[C@@H](C/C=C/C=C/C(=O)O[C@H](C2)[C@@]1(C)CO)C[C@H](O)[C@H]3C [LASONOLIDE A] | < 3 | 15 | 3 |
| CCOC(=O)[C@H](O)C/C=C\C[C@@H]1O[C@@H]2/C=C/C/C=C/C(C)=C\[C@H]3O[C@@H](C/C=C/C=C/C(=O)O[C@H](C2)[C@@]1(C)CO)C[C@H](O)[C@H]3C [LASONOLIDE E] | 15 | 7 | 100 |
